Consider two compounds from US20230172973A1, “METHODS AND COMPOSITIONS FOR TREATING AND COMBATTING TUBERCULOSIS” (THIRTY RESPIRATORY LIMITED, priority 2020, published 2023).

The structures appear in SMILES notation.

For series [1], the system named is SARS-CoV-2 clinical isolate. The experiment in a line: SARS-CoV-2 inhibition (virus yield reduction, TCID50 titration). The series is classed as cell-based. As for the experimental part:
At time 0 hr, Vero E6 cells were infected with virus in presence of the formulation or controls and incubated for 1 hour. After this incubation period the inoculum was removed and the cells were washed. Fresh formulation or controls were then added to the washed cells. At 24 hours post infection, Vero E6 cell supernatants were harvested and titrated, and the virus titration was incubated for 6 days prior to readout to determine any virus yield reduction. Separate tests were performed at four MOIs including 3.0 and 0.3, although only those two MOIs were titrated. The readout was by crystal violet (cell monolayer) staining, followed by CPE scoring.

In a further series the test system is Vero E6 cells. The settings on record: 2 hr and 24 hr.

Regarding `CCN(CC)CCCC(C)Nc1ccnc2cc(Cl)ccc12` (stereo not shown) [chloroquine, Chloroquine phosphate], the “SARS-CoV-2 titre (FIG. 33, Run 1)” value in series [1] (MOI 3.0, 24 hours incubation) was “limit of detection”. For the same compound, the “SARS-CoV-2 titre (FIG. 34, Run 2)” value in series [1] (MOI 3.0 and MOI 0.3, 48 hours incubation) was “limit of detection”.

On to `O=C(O)CC(O)(CC(=O)O)C(=O)O` [citric acid pH 5.8, citric acid], for which, in the series with Vero E6 cells, the “Cytotoxicity on the LDH assay (FIG. 32)” value is given as “low cytotoxicity”. In addition, the “In vitro antiviral action against SARS-CoV-2 (FIGS. 33 and 34)” value in series [1] (Vero E6 cells, MOI 3.0 and 0.3) is listed as “high in vitro antiviral action”.
